# Source: patent US20160311911A1, “METHODS FOR TREATING ALLERGIC AIRWAY INFLAMMATION” (priority 2015, published 2016)
# Assays:
# CXCR2 [1] = biological target: T1, CXCR2 (Mus musculus, UniProt P35343); test: RWPE repeated-challenge model with CXCR2 inhibitor; format: in vivo; details: WT mice
# T1 construct: endogenous in cells; host or cells: wild-type mice in vivo (receptor on neutrophils)
# T1 sequence (P35343 1-359): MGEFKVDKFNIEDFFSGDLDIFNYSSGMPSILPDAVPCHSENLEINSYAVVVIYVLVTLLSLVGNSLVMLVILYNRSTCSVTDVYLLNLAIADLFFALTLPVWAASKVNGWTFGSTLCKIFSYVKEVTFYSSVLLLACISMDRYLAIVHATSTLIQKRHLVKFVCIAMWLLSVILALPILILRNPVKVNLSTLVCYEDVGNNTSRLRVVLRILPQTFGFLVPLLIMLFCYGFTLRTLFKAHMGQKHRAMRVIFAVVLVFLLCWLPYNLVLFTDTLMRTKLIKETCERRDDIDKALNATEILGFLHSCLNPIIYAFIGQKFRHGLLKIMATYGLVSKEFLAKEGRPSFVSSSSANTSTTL
# Description: WT mice or Tlr4 KO mice were sensitized by five intranasal doses of RWPE (100 μg/60 μl) on Days 0, 1, 2, 3, and 4. These mice were challenged with intranasal RWPE or PBS on Day 11 and killed on Day 14 (14). In addition, WT mice were sensitized by five intranasal doses of RWPE on Days 0, 1, 2, 3, and 4 with RWPE with or without the intranasal administration of 4 mg/kg body weight SB225002 (16) 1 hour before each intranasal dose of RWPE. The mice were challenged with intranasal RWPE on Day 11 and killed on Day 14 (14). In some experiments, Tlr4 KO mice were sensitized by five intranasal doses of RWPE on Days 0, 1, 2, 3, and 4 in the presence or absence of X+XO and challenged with intranasal RWPE in the presence or absence of X+XO on Day 11 and killed on Day 14 as described above (14). In some experiments, RWPE and negatively selected neutrophils derived from bone marrow of donor mice were repeatedly intranasally instilled in Tlr4 KO mice. The purity of neutrophils was assessed to be 99% by FACS. Tlr4 KO mice were intranasally administered neutrophils (4×10^6 neutrophils per mouse) 8 hours after intranasal instillation of RWPE on Days 0, 1, 2, 3, 4, and 11 and killed on Day 14 as described previously to evaluate allergic inflammation.
# (§1) Bronchoalveolar lavage fluid (BALF) and histological examinations including PAS staining for mucin were performed as described previously (Sur et al., J Immunol 1996; 157(9):4173-4180). In some experiments, leukotriene B4 (LTB4), CXCL1/2, IL-5, IL-13, TSLP, and IL-33 in BALF were assayed using ELISA kits (R&D Systems, Minneapolis, Minn.)
# Mucin production was assessed by two investigators who were blinded to the treatment groups using a modification of a method reported (Wild et al., 2000, J Immunol 2000; 164(5):2701-2710) on a subjective scale of 0, 1, 2, 3, and 4 corresponding to none, mild, moderate, marked, or severe mucin deposition, respectively. The data were expressed as mean of score recorded by two blinded investigators.
# RWPE-specific IgE was measured using a previously described procedure (Wild et al., J Immunol 2000; 164(5):2701-2710). Briefly 96-well plates were coated with 100 ug/ml of RWPE protein overnight. After washing and blocking, diluted sera from the mice treated as above were applied. The plates were incubated with biotin-conjugated […] (clone R35-72; BD Biosciences, San Jose, Calif.) for 2 hours at room temperature, washed and incubated with avidin-conjugated alkaline phosphatase. After washing, fluorometric values for each well were recorded after addition of AttoPhos substrate solution (Promega, Madison, Wis.).
# CXCR2 [2] = biological target: T1, CXCR2; test: RWPE single-challenge model with CXCR2 inhibitor: BALF cell counts; format: in vivo; details: WT mice
# Description: WT mice and Tlr4 KO mice were intranasally challenged with a single dose of 100 μg/60 μl RWPE reconstituted from lyophilized RWPE (Greer Laboratories, Lenoir, N.C.) and killed after 0.5, 1, 4, 16, or 72 hours. In some experiments, to generate superoxide (7, 15), Tlr4 KO mice were intranasally challenged with 0.32 mM xanthine (X) (Sigma-Aldrich, St. Louis, Mo.) with 50 mU xanthine oxidase (XO) (Sigma-Aldrich) in the presence or absence of RWPE. In some experiments, 1 hour before RWPE challenge, WT mice were treated with intranasal administration of 4 mg/kg body weight chemokine (C-X-C motif) receptor 2 (CXCR2) inhibitor SB225002 (Calbiochem, San Diego, Calif.) and challenged with RWPE and killed as described above.
# as §1
# CXCR2 [3] = biological target: T1, CXCR2; test: Ex vivo superoxide generation from BALF cells after RWPE challenge; format: in vivo; details: WT mice; 4 mg/kg intranasal 1 hour before RWPE; 16 hours after RWPE challenge
# Description: WT mice and Tlr4 KO mice were challenged with 100 μg of RWPE or PBS and sacrificed at 0.5 and 16 hours. Ex vivo superoxide generation by BALF cells was measured by a mixture of two probes to optimize sensitivity of detection of superoxide (luminol and Diogenes) (Yamazaki et al., Trop Med Health 2011; 39(2):41-45). In additional experiments, WT mice with intranasal administration of the CXCR2 inhibitor SB225002 (4 mg/kg body weight) 1 hour before RWPE challenge, and ex vivo superoxide generation from cells in BALF was quantified.
# NF-κB = test: RWPE single-challenge model after intranasal NF-κB inhibitor; format: in vivo; details: WT mice; intranasal 1 hour before RWPE; BAY 11-7082 10 mg/kg, NEMO-binding domain binding peptide 25 per mouse; 16 hours
# Description: WT mice were intranasally challenged with a single dose of RWPE or CDE (100 μg/60 μL) and euthanized after 16 hours. In additional experiments, 1 hour before RWPE challenge, WT mice were treated with or without intranasal administration of a nuclear factor κB (NF-κB) inhibitor that selectively irreversibly blocks IκBα phosphorylation with BAY 11-7082 (10 mg/kg body weight; Calbiochem, San Diego, Calif.) (13) or NEMO-binding domain binding peptide (25 per mouse, Calbiochem) (14). These treated mice were challenged with RWPE and euthanized, as described above. Total and differential bronchoalveolar lavage fluid (BALF) cell counts were performed (16). Lungs were perfused and fixed with Zn fixative (BD Biosciences, San Jose, Calif.), and sections were stained with periodic acid-Schiff for mucus staining.
# IgE = details: reference 20; cited from earlier work
# Chain of IgE (P01854 1-428 isoform P01854-1): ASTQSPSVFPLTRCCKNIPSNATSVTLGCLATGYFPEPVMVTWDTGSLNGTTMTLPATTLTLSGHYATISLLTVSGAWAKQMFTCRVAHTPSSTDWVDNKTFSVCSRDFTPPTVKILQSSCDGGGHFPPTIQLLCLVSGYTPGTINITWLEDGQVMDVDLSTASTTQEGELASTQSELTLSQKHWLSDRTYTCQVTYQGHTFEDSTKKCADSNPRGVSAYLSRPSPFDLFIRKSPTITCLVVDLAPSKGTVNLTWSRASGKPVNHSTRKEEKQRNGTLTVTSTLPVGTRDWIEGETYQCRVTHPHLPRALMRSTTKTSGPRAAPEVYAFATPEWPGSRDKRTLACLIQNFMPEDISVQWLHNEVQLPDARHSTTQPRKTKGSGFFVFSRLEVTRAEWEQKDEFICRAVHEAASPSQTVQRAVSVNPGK
# [4] = 4 mg/kg intranasal before each RWPE dose, vs vehicle
compound,measurement,setting,value
O=C(Nc1ccc([N+](=O)[O-])cc1O)Nc1ccccc1Br [SB225002],RWPE-induced allergic inflammation,"CXCR2 [1]; 4 mg/kg intranasal 1 hour before each RWPE dose, compared with vehicle",attenuated
same,decrease in BALF eosinophils,CXCR2 [1]; [4],50 to 80%
same,decrease in BALF level of IL-5,CXCR2 [1]; [4],50 to 80%
same,decrease in BALF level of IL-13,CXCR2 [1]; [4],50 to 80%
same,decrease in BALF level of IL-33,CXCR2 [1]; [4],50 to 80%
same,decrease in BALF level of TSLP,CXCR2 [1]; [4],50 to 80%
same,decrease in BALF total inflammatory cells,CXCR2 [1]; [4],50 to 80%
same,decrease in accumulation of mucin in epithelial cells,CXCR2 [1]; [4],50 to 80%
same,decrease in serum RWPE-specific IgE,CXCR2 [1]; [4],50 to 80%
same,suppression of neutrophil recruitment into the lungs (BALF neutrophils),"CXCR2 [2]; 4 mg/kg intranasal 1 hour before RWPE challenge, 16 hours after challenge",66%
same,number of other cell types in BALF,"CXCR2 [2]; inhibitor before RWPE challenge, data not shown",did not alter
same,RWPE-induced recruitment of superoxide-generating cells (ex vivo superoxide generation of BALF cells),CXCR2 [3],blocked
Cc1ccc(S(=O)(=O)/C=C/C#N)cc1 [BAY 11-7082],RWPE challenge-induced neutrophil recruitment into the airways,NF-κB,decreased
Omalizumab: marketed drug cited for cat allergen exposure,severity of acute airway obstruction and symptoms caused by exposure to cat allergen,IgE,ameliorates
